These results are taken from US11958796B2, “Hydrophilic and particularly water soluble DBOV-derivatives” (Max-Planck-Gesellschaft zur Förderung der Wissenschaften …, priority 2018, dated 2024).

For series [1], the system named is living cells. Description: uptake into living cells, spinning disk confocal microscopy. Type of series: cell-based. Here is the method: (§1) More specifically, the cytotoxicity of DBOV-Mes-OTEG was tested in living cells. […] Moreover, the uptake of DBOV-Mes-OTEG into living cells was investigated by imaging 21 hours with low laser intensity at the spinning disk confocal microscopy (Visitron).

Series [2] has as its system living cells. Description: cytotoxicity test in living cells. Type of series: cell-based. Conditions: concentration of 1 μM. Here is the method:
as §1

The next series relates to fixed cell samples. Description: blinking-mode imaging of fixed samples in PBS. Conditions: fixed samples in PBS without special imaging buffer; continuous exposure, laser intensity 10 kW/cm^2 for 90 min. The source says: After the aforementioned live cell imaging, the samples were fixed and imaged in phosphate-buffered saline (PBS) without special imaging buffer.
A further series is described as follows: solubility in water. The series is classed as physicochemical. The conditions noted are these: room temperature. Here is the method: In accordance with the present invention, the solubility of the compound having the general formula (1) in water at 23° C. is measured as follows: 1.0 mg sample is weighed into an Erlenmeyer flask and is then mixed homogeneously with 4 ml of water with a spatula at 23° C. The remaining substance on the spatula is stripped off with a magnetic stirrer bar, which is then added to the Erlenmeyer flask. While stirring with a magnetic stirrer, water is added dropwise with a burette until the solution in the Erlenmeyer flask becomes clear at 23° C. After that, the solubility of compound in water is calculated by calculating the ratio of weighed compound divided by the volume of added water and then by recalculating this ratio to 1 l of water.

On to “3,4,5-tris(2,5,8,11-tetraoxatridecan-13-yloxy)phenyl substituted 6,14-dimesityldibenzo[hi,st]ovalene [DBOV-Mes-OTEG]”, for which, in the series on living cells [1] (after 21 hours incubation), the intracellular location result is “in the nucleus and nuclear membrane”. The “uptake / intracellular location” value with living cells [1] (beginning of the incubation) is “taken into the cytoplasm”. Moreover, the cytotoxicity result with living cells [2] was “does not show any significant toxicity”. In addition, the “stability of blinking signals (photostability)” value with fixed cell samples is given as “no significant decrease of blinking signals”. Moreover, in the series “solubility in water”, the solubility in water came out at 100 µg/mL.
